What was measured:
Format in all cases: in vivo
[1] = system: barnyardgrass (Echinochloa crus-galli); experiment: Test A pre-/postemergence greenhouse herbicide test, visual injury rating 0-100
Outline: (§1)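 Formulated in non-phytotoxic solvent with surfactant, compounds were applied pre- and postemergence simultaneously. Soil: loam–sand blend. Visual injury, 0 = no effect to 100 = complete control, ~10 days.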

corn (Zea mays) = experiment: as above
Outline: as §1

[2] = system: giant foxtail (Setaria faberii); experiment: as above
Outline: as §1

[3] = system: large (Lg) crabgrass (Digitaria sanguinalis); experiment: as above
Outline: as §1

[4] = system: pigweed (Amaranthus retroflexus); experiment: as above
Outline: as §1

[5] = system: velvetleaf (Abutilon theophrasti); experiment: as above
Outline: as §1

[6] = system: wheat (Triticum aestivum); experiment: as above
Outline: as §1

[7] = system: barnyardgrass (Echinochloa crus-galli); experiment: Test B flooded paddy test, plant response rating 0-100; details: Flood, 250 g ai/ha; scale 0 to 100 (0 no effect, 100 complete control); 13 to 15 days
From the text: (§2) At time of treatment, test pots were flooded to 3 cm above the soil surface, treated by application of test compounds directly to the paddy water, and then maintained at that water depth for the duration of the test. Treated plants and controls were maintained in a greenhouse for 13 to 15 days, after which time all species were compared to controls and visually evaluated. […] A dash (-) response means no test result.

[8] = system: ducksalad (Heteranthera limosa); experiment: as above; details: Flood, 250 g ai/ha; scale 0 to 100 (0 no effect, 100 complete control); 13 to 15 days
From the text: as §2

rice (Oryza sativa) = experiment: as above; details: Flood, 250 g ai/ha; scale 0 to 100 (0 no effect, 100 complete control); 13 to 15 days
From the text: as §2

[9] = system: sedge, umbrella (small-flower umbrella sedge, Cyperus difformis); experiment: as above; details: Flood, 250 g ai/ha; scale 0 to 100 (0 no effect, 100 complete control); 13 to 15 days
From the text: as §2

[10] = system: morningglory (Ipomoea spp.); experiment: Test A pre-/postemergence greenhouse herbicide test, visual injury rating 0-100
Outline: as §1

Compound: Cn1cc(C(=O)c2ccccc2)c(-c2cc(F)cc(Cl)c2)n1 [Compound 47]
- Plant response rating (0 to 100 scale), Barnyardgrass ([1]; Postemergence, 1000 g ai/ha): 0
- Plant response rating (0 to 100 scale), Barnyardgrass ([1]; Preemergence, 1000 g ai/ha): 0
- Plant response rating (0 to 100 scale), Corn (corn (Zea mays); Postemergence, 1000 g ai/ha): 0
- Plant response rating (0 to 100 scale), Corn (corn (Zea mays); Preemergence, 1000 g ai/ha): 0
- Plant response rating (0 to 100 scale), Foxtail, Giant ([2]; Postemergence, 1000 g ai/ha): 0
- Plant response rating (0 to 100 scale), Foxtail, Giant ([2]; Preemergence, 1000 g ai/ha): 0
- Plant response rating (0 to 100 scale), Crabgrass, Large ([3]; Postemergence, 1000 g ai/ha): 0
- Plant response rating (0 to 100 scale), Crabgrass, Large ([3]; Preemergence, 1000 g ai/ha): 0
- Plant response rating (0 to 100 scale), Pigweed ([4]; Postemergence, 1000 g ai/ha): 90
- Plant response rating (0 to 100 scale), Pigweed ([4]; Preemergence, 1000 g ai/ha): 80
- Plant response rating (0 to 100 scale), Velvetleaf ([5]; Postemergence, 1000 g ai/ha): 90
- Plant response rating (0 to 100 scale), Velvetleaf ([5]; Preemergence, 1000 g ai/ha): 90
- Plant response rating (0 to 100 scale), Wheat ([6]; Postemergence, 1000 g ai/ha): 0
- Plant response rating (0 to 100 scale), Wheat ([6]; Preemergence, 1000 g ai/ha): 0
- Plant response rating, Barnyardgrass [7]: 0
- Plant response rating, Ducksalad [8]: 0
- Plant response rating, Rice (rice (Oryza sativa)): 0
- Plant response rating, Sedge, Umbrella [9]: 0

Compound: N#CCn1cc(C(=O)c2ccccc2)c(-c2cc(Cl)cc(Cl)c2)n1 [Compound 43]
- Plant response rating (0 to 100 scale), Barnyardgrass ([1]; Postemergence, 125 g ai/ha): 0
- Plant response rating (0 to 100 scale), Barnyardgrass ([1]; Postemergence, 500 g ai/ha): 0
- Barnyardgrass plant response rating (0 = no effect, 100 = complete control) ([1]; Preemergence, 125 g ai/ha): 0
- Plant response rating (0 to 100 scale), Barnyardgrass ([1]; Preemergence, 500 g ai/ha): 0
- Plant response rating (0 to 100 scale), Corn (corn (Zea mays); Postemergence, 125 g ai/ha): 0
- Plant response rating (0 to 100 scale), Corn (corn (Zea mays); Postemergence, 500 g ai/ha): 0
- Corn plant response rating (0 = no effect, 100 = complete control) (corn (Zea mays); Preemergence, 125 g ai/ha): 0
- Plant response rating (0 to 100 scale), Corn (corn (Zea mays); Preemergence, 500 g ai/ha): 0
- Plant response rating (0 to 100 scale), Foxtail, Giant ([2]; Postemergence, 125 g ai/ha): 0
- Plant response rating (0 to 100 scale), Foxtail, Giant ([2]; Postemergence, 500 g ai/ha): 0
- Foxtail, Giant plant response rating (0 = no effect, 100 = complete control) ([2]; Preemergence, 125 g ai/ha): 0
- Plant response rating (0 to 100 scale), Foxtail, Giant ([2]; Preemergence, 500 g ai/ha): 0
- Plant response rating (0 to 100 scale), Crabgrass, Large ([3]; Postemergence, 125 g ai/ha): 0
- Plant response rating (0 to 100 scale), Crabgrass, Large ([3]; Postemergence, 500 g ai/ha): 0
- Crabgrass, Large plant response rating (0 = no effect, 100 = complete control) ([3]; Preemergence, 125 g ai/ha): 0
- Plant response rating (0 to 100 scale), Crabgrass, Large ([3]; Preemergence, 500 g ai/ha): 0
- Morningglory plant response rating (0 = no effect, 100 = complete control) ([10]; Preemergence, 125 g ai/ha): 0
- Plant response rating (0 to 100 scale), Morningglory ([10]; Preemergence, 500 g ai/ha): 0
- Plant response rating (0 to 100 scale), Pigweed ([4]; Postemergence, 125 g ai/ha): 50
- Plant response rating (0 to 100 scale), Pigweed ([4]; Postemergence, 500 g ai/ha): 80
- Pigweed plant response rating (0 = no effect, 100 = complete control) ([4]; Preemergence, 125 g ai/ha): 0
- Plant response rating (0 to 100 scale), Pigweed ([4]; Preemergence, 500 g ai/ha): 40
- Plant response rating (0 to 100 scale), Velvetleaf ([5]; Postemergence, 125 g ai/ha): 20
- Plant response rating (0 to 100 scale), Velvetleaf ([5]; Postemergence, 500 g ai/ha): 80
- Velvetleaf plant response rating (0 = no effect, 100 = complete control) ([5]; Preemergence, 125 g ai/ha): 30
- Plant response rating (0 to 100 scale), Velvetleaf ([5]; Preemergence, 500 g ai/ha): 30
- Plant response rating (0 to 100 scale), Wheat ([6]; Postemergence, 125 g ai/ha): 0
- Plant response rating (0 to 100 scale), Wheat ([6]; Postemergence, 500 g ai/ha): 0
- Wheat plant response rating (0 = no effect, 100 = complete control) ([6]; Preemergence, 125 g ai/ha): 0
- Plant response rating (0 to 100 scale), Wheat ([6]; Preemergence, 500 g ai/ha): 0
- Plant response rating, Barnyardgrass [7]: 0
- Plant response rating, Ducksalad [8]: 0
- Plant response rating, Rice (rice (Oryza sativa)): 0
- Plant response rating, Sedge, Umbrella [9]: 0

Compound: Clc1cc(Cl)cc(-c2n[nH]cc2C(=NN2CCOCC2)c2ccccc2)c1 [Compound 55]
- Plant response rating (0 to 100 scale), Barnyardgrass ([1]; Postemergence, 1000 g ai/ha): 0
- Plant response rating (0 to 100 scale), Barnyardgrass ([1]; Preemergence, 1000 g ai/ha): 0
- Plant response rating (0 to 100 scale), Corn (corn (Zea mays); Postemergence, 1000 g ai/ha): 0
- Plant response rating (0 to 100 scale), Corn (corn (Zea mays); Preemergence, 1000 g ai/ha): 0
- Plant response rating (0 to 100 scale), Foxtail, Giant ([2]; Postemergence, 1000 g ai/ha): 0
- Plant response rating (0 to 100 scale), Foxtail, Giant ([2]; Preemergence, 1000 g ai/ha): 0
- Plant response rating (0 to 100 scale), Crabgrass, Large ([3]; Postemergence, 1000 g ai/ha): 0
- Plant response rating (0 to 100 scale), Crabgrass, Large ([3]; Preemergence, 1000 g ai/ha): 0
- Plant response rating (0 to 100 scale), Morningglory ([10]; Postemergence, 1000 g ai/ha): 0
- Plant response rating (0 to 100 scale), Morningglory ([10]; Preemergence, 1000 g ai/ha): 0
- Plant response rating (0 to 100 scale), Pigweed ([4]; Postemergence, 1000 g ai/ha): 100
- Plant response rating (0 to 100 scale), Pigweed ([4]; Preemergence, 1000 g ai/ha): 90
- Plant response rating (0 to 100 scale), Velvetleaf ([5]; Postemergence, 1000 g ai/ha): 100
- Plant response rating (0 to 100 scale), Velvetleaf ([5]; Preemergence, 1000 g ai/ha): 80
- Plant response rating (0 to 100 scale), Wheat ([6]; Postemergence, 1000 g ai/ha): 0
- Plant response rating (0 to 100 scale), Wheat ([6]; Preemergence, 1000 g ai/ha): 0
- Plant response rating, Barnyardgrass [7]: 0
- Plant response rating, Ducksalad [8]: 0
- Plant response rating, Rice (rice (Oryza sativa)): 0
- Plant response rating, Sedge, Umbrella [9]: 0

From US10167262B2, “Herbicidal substituted 3-arylpyrazoles” (FMC CORPORATION, priority 2014, dated 2019)
